Assay type in all cases: cell-based
The test system of test [1] is HPEKp cells (human epidermal keratinocyte progenitors, pooled). Nature of the test: alamarBlue proliferation assay with HPEKp cells. To be noted: 120 h, relative to DMSO basis level 1.0, read-out: weighted arithmetic mean (AVEw) of normalized fluorescence intensity, activity range. As to the method:
(§1) The antiproliferative activities of compounds falling under formula I, formula II, formula III, formula IV and formula V were investigated on cells or cell lines originating from a disorder of the myeloid cell compartment, the neuroendocrine system, the cervix, and the mucosal epithelium, as well as from the skin epithelium. To this end, HL-60 cells, TT cells, HeLa cells, CAL-27 cells and human primary epidermal keratinocytes (HPEK) were seeded into 96-well plates suitable for fluorescence assays (CORNING #3598) at following initial cell numbers: 1000 cells per well for HL-60; 9000 cells per well for TT; 2000 cells per well for HeLa, 2000 cells per well for CAL-27, 2000 cells per well for HPEK. The cells were treated with compounds at indicated final concentrations (diluted from the 1000× stock-solutions in DMSO to a final DMSO concentration of 0.1% v/v) or with the empty carrier DMSO at 0.1% v/v as control for 5 days. At day 5 after starting the treatments the cells were subjected to the alamarBlue® Proliferation Assay (Bio-Rad Serotec GmbH, BUF012B) according to the protocol of the manufacturer. The readout was taken with a multi-well plate-reader in the fluorescence mode with applying a filter for excitation at 560 nm (band width 10 nm) and for emission at 590 nm (band width 10 nm). Resveratrol (RES) treatment was included as control for growth inhibition.
(§2) The assays were performed in duplicate or more replicates of independent single experiments each containing a six-fold replicate for every condition. For every individual plate, the measured fluorescence intensity values of the conditions with compound treatment were normalized against the corresponding equally weighted arithmetic mean of the fluorescence intensity values of the six DMSO treated control wells in order to obtain the relative values to a baseline level of 1.0. The statistical calculations were performed in analogy to the luciferase assay as described above. To this end, two independent outlier analyses were performed according to the methods by Peirce and Chauvenet (Ross, Journal of Engineering Technology 2003, 1-12). Outliers confirmed by at least one of the methods were excluded from the calculations but not more than one value out of six per compound within a single experiment. The weighted arithmetic mean AVEw for each compound was calculated from the normalized values over all independent replicates of the single experiments comprising the six replicates each. The corresponding standard deviation for the weighted arithmetic mean was calculated according to the method described by Bronstein et al. (Bronstein, Semendjajew, Musiol, Mühlig, Taschenbuch der Mathematik, 5th edition 2001 (German), publisher: Verlag Harri Deutsch, Frankfurt am Main and Thun) and was combined with the Gauß′ error propagation associated with the performed calculation for the normalization. The resulting standard deviation is herein referred to as “combined standard deviation”.
HPEKp cells were cultivated according to the protocol of the provider in CnT-Prime epithelial culture medium (CELLnTEC, #CnT-PR, a fully defined, low calcium formulation, completely free of animal or human-derived components) without addition of further components.
(§3) A compound is considered as a growth inhibitor of HPEKp cells, if—at a reference concentration of 10 μM—the weighted arithmetic mean of the normalized fluorescence intensity values after addition of the corresponding combined standard deviation amounts to 0.9 or lower, in particular to 0.8 or lower, 0.7 or lower, 0.6 or lower, 0.4 or lower, and 0.2 or lower, relative to the overall basis level of 1.0. The overall basis level was calculated as the weighted arithmetic mean of all normalized values from the DMSO control measurements in analogy to the calculations performed for the test-compounds. The corresponding combined standard deviation for the DMSO values amounts to less than 1·10^−2.
On the technique in general: Alamar Blue is a resazurin reagent that responds to reducing activity.

For test [2], the system named is Notch signaling (hNotch1ΔE, human Notch1 receptor) in HeLa cells. Nature of the test: Notch reporter assay (luciferase luminescence readout in transfected HeLa cells). To be noted: Homo sapiens, 20 hours, relative to DMSO baseline level of 1.0, read-out: AVEw, weighted arithmetic mean of double-normalized Notch-reporter luciferase luminescence values (Activity Range). The gist of the method:
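HeLa cells were transiently transfected for 24 h with membrane-tethered constitutively active hNotch1ΔE, a CSL-promoter Firefly luciferase reporter and constitutive SV40-Renilla luciferase. Compounds were then applied at 10 μM (0.1% DMSO) for 20 h. Firefly/Renilla dual-luciferase ratios were normalized to DMSO control (baseline 1.0), outliers were excluded, and replicate values were averaged across ≥3 independent experiments.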
In general terms: A reporter such as luciferase makes a cellular process visible.

Test [3] has as its system CAL-27 cells (human tongue squamous cell carcinoma cells). Nature of the test: alamarBlue proliferation assay with CAL-27 cells. To be noted: Homo sapiens, 120 h; for activity at 20 µM: 5 days, relative to DMSO baseline level of 1.0, read-out: AVEw, weighted arithmetic mean of normalized fluorescence intensity values (Activity Range), CAL-27 proliferation. The method, then:
as §1, §2
CAL-27 cells were cultivated according to the protocol of the provider (but at 5% instead of 10% CO2) in DMEM medium (Fisherscientific, #11584456) containing 10% fetal bovine serum (Fisherscientific, #15517589).
as §3, with “of CAL-27” for “of HPEKp”, “of 20” for “of 10”

Test [4] deals with HL-60 cells (human acute myeloid leukemia cells). Description: alamarBlue proliferation assay with HL-60 cells. To be noted: 120 h, 5 days, relative to DMSO baseline level of 1.0, read-out: AVEw, weighted arithmetic mean of normalized fluorescence intensity values (Activity Range), HL-60 proliferation. The essentials: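 HL-60 cells (1000/well, RPMI 1640 + 10% FBS) exposed to compound in 0.1% DMSO for 5 days, then alamarBlue fluorescence read (ex 560/em 590 nm). Signals normalized to six DMSO wells per plate (baseline 1.0); outliers removed by Peirce/Chauvenet; weighted mean with combined SD; inhibitor criterion judged at 20 μM reference concentration.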

Test [5] deals with TT cells (human medullary thyroid carcinoma cells). Description: alamarBlue proliferation assay with TT cells. The following applies: Homo sapiens, 120 h, 40 μM, relative to DMSO basis level 1.0, read-out: weighted arithmetic mean (AVEw) of normalized fluorescence intensity, activity range. As to the method: as §1, §2
TT cells were cultivated according to the protocol of the provider in F-12K medium (Fisherscientific, #11580556, or ATCC, #ATCC-30-2004) containing 10% fetal bovine serum (Fisherscientific, #15517589).
as §3, with “of TT” for “of HPEKp”, “of 40” for “of 10”

The structures appear in SMILES notation.

As for `O=C(O)c1ccc(Oc2ccc(C3C[C@@H]4CC[C@H]3C4)cc2)nc1` (stereo partly drawn) [Compound 086, 6-(4-((1S,4R)-bicyclo[2.2.1]heptan-2-yl)phenoxy)nicotinic acid], the activity at 10 µM in test [1] lay in the range of 60 to 70%. In addition, the fold induction at 10 µM in test [2] fell in the range of 1.1 to 1.2.

Regarding `COC(=O)c1ccc(Oc2ccc(C3C[C@@H]4CC[C@H]3C4)cc2)nc1` (stereo partly drawn) [Compound 112, methyl 6-(4-((1S,4R)-bicyclo[2.2.1]heptan-2-yl)phenoxy)nicotinate], the activity at 10 µM in test [1] is 40 to 60%.

In the case of `CCCc1ccc(Oc2ccc(C(N)=O)cc2)cc1` [Compound 140, 4-(4-propylphenoxy)benzamide], the activity at 10 µM in test [1] is 80 to 90%.

Turning to `O=C(NO)c1ccc(Oc2ccc(C3CC4CCC3CC4)cc2)cc1` (stereo not drawn) [Compound 185, 4-(4-((1s,4s)-bicyclo[2.2.2]octan-2-yl)phenoxy)-N-hydroxybenzamide], the activity at 20 µM in test [3] and in test [4] was 0 to 20% in each case. The activity at 10 µM in test [1] was in the range of 0 to 20%.

Turning to `CCc1ccc(Oc2ccc(C(=O)NC)cc2)cc1` [Compound 190, 4-(4-ethylphenoxy)-N-methylbenzamide], the activity at 10 µM in test [1] was in the range of 60 to 70%.

As to `CNC(=O)c1ccc(Oc2ccc(C3CCCCC3)cc2)nc1` [Compound 309, 6-(4-cyclohexylphenoxy)-N-methylnicotinamide], in test [5], the activity at 40 µM lay within 80 to 90%.

On to `CNC(=O)c1ccc(Oc2ccc(C3CC4CCC3CC4)cc2)nc1` (stereo not drawn) [Compound 312, 6-(4-((1s,4s)-bicyclo[2.2.2]octan-2-yl)phenoxy)-N-methylnicotinamide], for which the activity at 10 µM in test [1] fell in the range of 70 to 80%.

Turning to `CCC(C)(C)c1ccc(Oc2ccc(C(=O)N(C)C)cn2)cc1` [Compound 323, N,N-dimethyl-6-(4-(tert-pentyl)phenoxy)nicotinamide], in test [4], the activity at 20 µM was in the range of 40 to 60%. For the same molecule, in test [1], the activity at 10 µM is 70 to 80%. For the same molecule, the fold induction at 10 µM in test [2] was in the range of 1.1 to 1.2.

`CCC(C)(C)c1ccc(Oc2ccc(C(=O)OC)cc2F)cc1` [Compound 374, methyl 3-fluoro-4-(4-(tert-pentyl)phenoxy)benzoate]: the activity at 20 µM in test [4] was 80 to 90%. Further, in test [1], the activity at 10 µM lay within 80 to 90%. Moreover, the fold induction at 10 µM in test [2] was 1.1 to 1.2.

On to `COC(=O)c1ccc(Oc2ccc(C34CC5CC(CC(C5)C3)C4)cc2)c(F)c1` [Compound 389, methyl 4-(4-((3r,5r,7r)-adamantan-1-yl)phenoxy)-3-fluorobenzoate], for which the activity at 20 µM in test [4] lay in the range of 40 to 60%. In addition, the activity at 10 µM in test [1] fell in the range of 20 to 40%.

For `CC(C)(C)c1ccc(Oc2ncc(C(=O)O)cc2F)cc1` [Compound 424, 6-(4-(tert-butyl)phenoxy)-5-fluoronicotinic acid], in test [1], the activity at 10 µM was in the range of 70 to 80%.

On to `O=C(O)c1cnc(Oc2ccc(C34CC5CC(CC(C5)C3)C4)cc2)c(F)c1` [Compound 440, 6-(4-((3r,5r,7r)-adamantan-1-yl)phenoxy)-5-fluoronicotinic acid], for which, in test [4], the activity at 20 µM fell in the range of 70 to 80%. For the same molecule, the activity at 10 µM in test [1] fell in the range of 20 to 40%.

Consider `CCOC(=O)c1ccc(Oc2ccc(C3(C(F)(F)F)CC3)cc2)cc1` [Compound 721, ethyl 4-(4-(1-(trifluoromethyl)cyclopropyl)phenoxy)benzoate], for which, in test [4], the activity at 20 µM lay within 40 to 60%. In test [1], the activity at 10 µM lay in the range of 70 to 80%. The fold induction at 10 µM in test [2] fell in the range of 1.1 to 1.2.

Regarding `CCOC(=O)c1ccc(Oc2ccc(C3(C(F)(F)C(F)(F)F)CC3)cc2)cc1` [Compound 722], in test [3] (40 μM, relative to DMSO basis level 1.0, read-out: weighted arithmetic mean (AVEw) of normalized fluorescence intensity, activity range), the activity at 40 µM was in the range of 70 to 80%. Also, the activity at 20 µM in test [4] is 40 to 60%. Also, the activity at 10 µM in test [1] was 40 to 60%.

Consider `O=C(O)c1ccc(Oc2ccc(C3(C(F)(F)C(F)(F)F)CC3)cc2)nc1` [Compound 731], for which the activity at 20 µM in test [4] fell in the range of 80 to 90%. Besides, the activity at 10 µM in test [1] lay within 80 to 90%.

Take `COC(=O)c1ccc(Oc2ccc(C3(C(F)(F)F)CC3)cc2Cl)nc1` [Compound 747, methyl 6-(2-chloro-4-(1-(trifluoromethyl)cyclopropyl)phenoxy)nicotinate]: the activity at 10 µM in test [1] was 80 to 90%.

With `CCOC(=O)c1ccc(Oc2ccc(C3(C(F)(F)C(F)(F)F)CC3)cc2)nc1` [Compound 749, Ethyl 6-(4-(1-(perfluoroethyl)cyclopropyl)phenoxy)nicotinate], the activity at 10 µM in test [1] lay within 80 to 90%.

In the case of `NC(=O)c1ccc(Oc2ccc(C3(C(F)(F)F)CC3)cc2Cl)nc1` [Compound 801, 6-(2-chloro-4-(1-(trifluoromethyl)cyclopropyl)phenoxy)nicotinamide], in test [1], the activity at 10 µM was 80 to 90%.

Take `O=C(NO)c1ccc(Oc2ccc(C3(C(F)(F)F)CC3)cc2Cl)nc1` [Compound 810, 6-(2-chloro-4-(1-(trifluoromethyl)cyclopropyl)phenoxy)-N-hydroxynicotinamide]: the activity at 20 µM in test [3] and in test [4] was 0 to 20% throughout. Further, the activity at 10 µM in test [1] lay in the range of 0 to 20%.

As for `CNC(=O)c1ccc(Oc2ccc(C3(C(F)(F)F)CC3)cc2Cl)nc1` [Compound 819], the activity at 20 µM in test [4] lay within 80 to 90%. For the same molecule, the activity at 10 µM in test [1] lay in the range of 70 to 80%.

Take `CN(C)C(=O)c1ccc(Oc2ccc(C3(C(F)(F)F)CC3)cc2Cl)nc1` [Compound 828, 6-(2-chloro-4-(1-(trifluoromethyl)cyclopropyl)phenoxy)-N,N-dimethylnicotinamide]: in test [4], the activity at 20 µM was 60 to 70%. Also, the activity at 10 µM in test [1] was 70 to 80%.

(Values after patent publication US12600696B2 (XENIOPRO GMBH, priority 2017, dated 2026).)
